Assay: xn = mol fraction of the nth substance listed
Conditions: Liquid, Vibrating tube method

CCCCCCCCCCCCCCCCCC [octadecane] + CCCCCCCCCC
mass density [kg/m3]
Conditions | 1000 kPa | 2000 kPa | 3000 kPa | 4000 kPa | 5000 kPa | 6000 kPa | 7000 kPa | 8000 kPa | 9000 kPa | 10000 kPa
295.1 K, x2 = 0.5 | 759.7 | 760.4 | 761.1 | 761.7 | 762.4 | 763.1 | 763.7 | 764.4 | 765.1 | 765.8
295.2 K, x2 = 0.75 | 745.7 | 746.4 | 747.1 | 747.9 | 748.6 | 749.3 | 750 | 750.7 | 751.4 | 752.1
295.8 K, x2 = 0.9 | 733.9 | 734.7 | 735.4 | 736.2 | 736.9 | 737.6 | 738.4 | 739.1 | 739.9 | 740.6

Reference: the NIST ThermoML archive (doi:10.1021/je300526w)
